Broadly, the EC50 is the midpoint of the concentration-response curve.

Read-outs that look alike come from different tables or passages of the source.

The test system of the assay is HCV pseudoparticles, genotype 1a HCV E1 and E2 envelope (H77C isolate). The assay can be described thus: HCV pseudoparticle infection assay (luciferase reporter, Huh7 cells). The following applies: Hepatitis C virus, Huh-7, 48 h. The class given is cell-based, HCV genotype 1a (H77C). (A reporter such as luciferase makes a cellular process visible.)
[1] abbreviates: read-out: EC50 (nM) 1a (H77C), HCV pseudoparticle entry into Huh7 cells, luciferase 2 days after infection, average of duplicates.
[2] abbreviates: read-out: EC50 (nM) 1a (H77C), HCV pseudoparticle entry into Huh7 cells, luciferase 2 days after infection, class symbol.
The mark [3] stands for this setting: HCV pseudoparticle entry into Huh7 cells, luciferase 2 days after infection, class symbol, read-out: EC50 (nM) 1a (H77C).

As to `CC1(C)CNC(=O)c2ccc(cc2)Nc2nc(nc(OCC(F)(F)F)n2)NCc2ccc(c(Cl)c2)OCCCN(C(=O)c2ccccc2)C1` [Example 1001], the EC50 was 0.864 nM under setting [1] and 0.01 to 10 nM under setting [2].

On to `CC1(C)CNC(=O)c2ccc(cc2)Nc2nc(nc(OCC(F)(F)F)n2)NCc2ccc(c(Cl)c2)OCCCN(C(=O)Cc2ccccc2)C1` [Example 1002], for which the EC50 under setting [2] fell in the range of 0.01 to 10 nM.

Consider `CC1(C)CNC(=O)c2ccc(cc2)Nc2nc(nc(OCC(F)(F)F)n2)NCc2ccc(c(Cl)c2)OCCCN(C(=O)CCc2ccccc2)C1` [Example 1003], for which, under setting [2], the EC50 lay in the range of 0.01 to 10 nM.

Take `CC1(C)CNC(=O)c2ccc(cc2)Nc2nc(nc(OCC(F)(F)F)n2)NCc2ccc(c(Cl)c2)OCCCN(C(=O)CCCc2ccccc2)C1` [Example 1004]: the EC50 under setting [2] lay within 0.01 to 10 nM.

Consider `CC1(C)CNC(=O)c2ccc(cc2)Nc2nc(nc(OCC(F)(F)F)n2)NCc2ccc(c(Cl)c2)OCCCN(C(=O)/C=C/c2ccccc2)C1` [Example 1005], for which the EC50 runs as follows: under setting [1], 1.51 nM; under setting [2], 0.01 to 10 nM.

For `CC1(C)CNC(=O)c2ccc(cc2)Nc2nc(nc(OCC(F)(F)F)n2)NCc2ccc(c(Cl)c2)OCCCN(C(=O)/C=C/c2ccoc2)C1` [Example 1006], under setting [2], the EC50 was in the range of 0.01 to 10 nM.

With `CC1(C)CNC(=O)c2ccc(cc2)Nc2nc(nc(OCC(F)(F)F)n2)NCc2ccc(c(Cl)c2)OCCCN(C(=O)/C=C/c2ccco2)C1` [Example 1007], under setting [2], the EC50 lay within 0.01 to 10 nM.

`CC1(C)CNC(=O)c2ccc(cc2)Nc2nc(nc(OCC(F)(F)F)n2)NCc2ccc(c(Cl)c2)OCCCN(C(=O)CCC(=O)O)C1` [Example 1008]: the EC50 runs as follows: under setting [1], 23.9 nM; under setting [2], 10 to 1000 nM.

As for `CC1(C)CNC(=O)c2ccc(cc2)Nc2nc(nc(OCC(F)(F)F)n2)NCc2ccc(c(Cl)c2)OCCCN(C(=O)CN)C1` [Example 1009], the EC50 under setting [2] lay in the range of 0.01 to 10 nM.

Take `CC1(C)CNC(=O)c2ccc(cc2)Nc2nc(nc(OCC(F)(F)F)n2)NCc2ccc(c(Cl)c2)OCCCN(C(=O)CNC(=O)OC(C)(C)C)C1` [Example 1010]: the EC50 under setting [2] was in the range of 0.01 to 10 nM.

For the molecule `CC1(C)CNC(=O)c2ccc(cc2)Nc2nc(nc(OCC(F)(F)F)n2)NCc2ccc(c(Cl)c2)OCCCN(C(=O)[C@@H]2C[C@H]2c2ccccc2)C1` [Example 1011], the EC50 under setting [2] lay in the range of 0.01 to 10 nM.

Consider `CC1(C)CNC(=O)c2ccc(cc2)Nc2nc(nc(OCC(F)(F)F)n2)NCc2ccc(c(Cl)c2)OCCCN(C(=O)c2ncoc2-c2ccccc2)C1` [Example 1012], for which the EC50 under setting [2] lay within 0.01 to 10 nM.

`CC1(C)CNC(=O)c2ccc(cc2)Nc2nc(nc(OCC(F)(F)F)n2)NCc2ccc(c(Cl)c2)OCCCN(C(=O)CCc2nc3ccccc3s2)C1` [Example 1013]: the EC50 under setting [2] is 0.01 to 10 nM.

With `CC1(C)CNC(=O)c2ccc(cc2)Nc2nc(nc(OCC(F)(F)F)n2)NCc2ccc(c(Cl)c2)OCCCN(C(=O)CCc2ccncc2)C1` [Example 1014], the EC50 under setting [2] is 0.01 to 10 nM.

As for `CC1(C)CNC(=O)c2ccc(cc2)Nc2nc(nc(OCC(F)(F)F)n2)NCc2ccc(c(Cl)c2)OCCCN(C(=O)CC(C)(C)n2cccc2)C1` [Example 1015], the EC50 was 0.932 nM under setting [1] and 0.01 to 10 nM under setting [2].

For the molecule `CC1(C)CNC(=O)c2ccc(cc2)Nc2nc(nc(OCC(F)(F)F)n2)NCc2ccc(c(Cl)c2)OCCCN(C(=O)Cc2cccnc2)C1` [Example 1016], under setting [2], the EC50 was in the range of 0.01 to 10 nM.

On to `CC1(C)CNC(=O)c2ccc(cc2)Nc2nc(nc(OCC(F)(F)F)n2)NCc2ccc(c(Cl)c2)OCCCN(C(=O)CCC(=O)c2ccccc2)C1` [Example 1017], for which the EC50 under setting [2] lay within 0.01 to 10 nM.

`C#CCOC(=O)N1CCCOc2ccc(cc2Cl)CNc2nc(nc(OCC(F)(F)F)n2)Nc2ccc(cc2)C(=O)NCC(C)(C)C1` [Example 2001]: the EC50 under setting [2] lay within 0.01 to 10 nM.

As for `C=COC(=O)N1CCCOc2ccc(cc2Cl)CNc2nc(nc(OCC(F)(F)F)n2)Nc2ccc(cc2)C(=O)NCC(C)(C)C1` [Example 2002], under setting [2], the EC50 lay within 0.01 to 10 nM.

Take `C=CCOC(=O)N1CCCOc2ccc(cc2Cl)CNc2nc(nc(OCC(F)(F)F)n2)Nc2ccc(cc2)C(=O)NCC(C)(C)C1` [Example 2003]: the EC50 under setting [2] is 0.01 to 10 nM.

As for `CC(C)[C@H]1CC[C@H](C)C[C@@H]1OC(=O)N1CCCOc2ccc(cc2Cl)CNc2nc(nc(OCC(F)(F)F)n2)Nc2ccc(cc2)C(=O)NCC(C)(C)C1` [Example 2004], the EC50 under setting [2] lay within 0.01 to 10 nM.

Consider `CC(C)[C@@H]1CC[C@@H](C)C[C@H]1OC(=O)N1CCCOc2ccc(cc2Cl)CNc2nc(nc(OCC(F)(F)F)n2)Nc2ccc(cc2)C(=O)NCC(C)(C)C1` [Example 2005], for which the EC50 reads like this: under setting [1], 2.85 nM; under setting [2], 0.01 to 10 nM.

For `CC1(C)CNC(=O)c2ccc(cc2)Nc2nc(nc(OCC(F)(F)F)n2)NCc2ccc(c(Cl)c2)OCCCN(C(=O)Oc2ccccc2)C1` [Example 2006], the EC50 under setting [3] fell in the range of 0.01 to 10 nM.

On to `COc1ccc(OC(=O)N2CCCOc3ccc(cc3Cl)CNc3nc(nc(OCC(F)(F)F)n3)Nc3ccc(cc3)C(=O)NCC(C)(C)C2)cc1` [Example 2007], for which the concentration for a half-maximal effect (EC50) under setting [3] was in the range of 0.01 to 10 nM.

For the molecule `CC1(C)CNC(=O)c2ccc(cc2)Nc2nc(nc(OCC(F)(F)F)n2)NCc2ccc(c(Cl)c2)OCCCN(C(=O)Oc2ccc([N+](=O)[O-])cc2)C1` [Example 2008], the EC50 under setting [3] was in the range of 0.01 to 10 nM.

As for `CC1(C)CNC(=O)c2ccc(cc2)Nc2nc(nc(OCC(F)(F)F)n2)NCc2ccc(c(Cl)c2)OCCCN(C(=O)Oc2cccc3ccccc23)C1` [Example 2009], the EC50 was 1.26 nM (HCV pseudoparticle entry into Huh7 cells, luciferase 2 days after infection, average of duplicates, read-out: EC50 (nM) 1a (H77C)) and 0.01 to 10 nM under setting [3].

Take `CC1(C)CNC(=O)c2ccc(cc2)Nc2nc(nc(OCC(F)(F)F)n2)NCc2ccc(c(Cl)c2)OCCCN(C(=O)Oc2ccc3ccccc3c2)C1` [Example 2010]: the EC50 under setting [3] was in the range of 0.01 to 10 nM.

Take `CC1(C)CNC(=O)c2ccc(cc2)Nc2nc(nc(OCc3cccnc3)n2)NCc2ccc(c(Cl)c2)OCCCN(C(=O)OCc2cccnc2)C1` [Example 2011]: the EC50 under setting [2] was 10 to 1000 nM.

Regarding `CC1(C)CNC(=O)c2ccc(cc2)Nc2nc(nc(OCC(F)(F)F)n2)NCc2ccc(c(Cl)c2)OCCCN(C(=O)OCCOCc2ccccc2)C1` [Example 2013], under setting [2], the EC50 was in the range of 0.01 to 10 nM.

As for `Cc1oc(=O)oc1COC(=O)N1CCCOc2ccc(cc2Cl)CNc2nc(nc(OCC(F)(F)F)n2)Nc2ccc(cc2)C(=O)NCC(C)(C)C1` [Example 2014], the EC50 under setting [2] lay in the range of 0.01 to 10 nM.

For `Cc1oc(=O)oc1COC(=O)N1CCCOc2ccc(cc2Cl)CNc2nc(nc(OCc3ccc(C(F)(F)F)cc3)n2)Nc2ccc(cc2)C(=O)NCC(C)(C)C1` [Example 2015], under setting [2], the EC50 fell in the range of 0.01 to 10 nM.

With `Cc1oc(=O)oc1COC(=O)N1CCCOc2ccc(cc2Cl)CNc2nc(nc(OCc3ccc(C(C)C)cc3)n2)Nc2ccc(cc2)C(=O)NCC(C)(C)C1` [Example 2016], the EC50 reads like this: under setting [1], 0.109 nM; under setting [2], 0.01 to 10 nM.

With `CC1(C)CNC(=O)c2ccc(cc2)Nc2nc(nc(OCC(F)(F)F)n2)NCc2ccc(c(Cl)c2)OCCCN(C#N)C1` [Example 3001], the EC50 under setting [2] was in the range of 0.01 to 10 nM.

As to `CC1(C)CNC(=O)c2ccc(cc2)Nc2nc(nc(OCC(F)(F)F)n2)NCc2ccc(c(Cl)c2)OCCCN(S(=O)(=O)/C=C/c2ccccc2)C1` [Example 4001], the EC50 by setting is: under setting [1], 0.555 nM; under setting [2], 0.01 to 10 nM.

Turning to `Cc1oc(=O)oc1CN1CCCOc2ccc(cc2Cl)CNc2nc(nc(OCC(F)(F)F)n2)Nc2ccc(cc2)C(=O)NCC(C)(C)C1` [Example 5001], the EC50 is 7.67 nM under setting [1] and 0.01 to 10 nM under setting [2].

On to `Cc1oc(=O)oc1CN1CCCOc2ccc(cc2Cl)CN(Cc2oc(=O)oc2C)c2nc(nc(OCC(F)(F)F)n2)Nc2ccc(cc2)C(=O)NCC(C)(C)C1` [Example 5002], for which, under setting [2], the EC50 was in the range of 0.01 to 10 nM.

These data come from patent US9868743B2, “Macrocyclic molecules as HCV entry inhibitors” (priority 2013, dated 2018).
